One assay deals with T1, ORL1 receptor (Homo sapiens, UniProt P41146).
T1 construct: expressed in transfected cells; host or cells: CHO (recombinant CHO-ORL1 cells), membranes
The experiment in a line: ORL1 receptor binding assay with 3H-nociceptin/orphanin FQ (WGA-SPA beads). The conditions noted are these: c=1 μM test substance; 0.5 nM 3H-nociceptin/orphanin FQ; membranes of recombinant CHO-ORL1 cells. As for the experimental part: Measurement of ORL1 Binding
The cyclohexane derivatives having the general formula I were investigated in a receptor binding assay with ^3H-nociceptin/orphanin FQ with membranes of recombinant CHO—ORL1 cells. This test system was conducted in accordance with the method described by Ardati et al. (Mol. Pharmacol., 51, 1997, p. 816-824). The concentration of ^3H-nociceptin/orphanin FQ in these tests was 0.5 nM. The binding assays were carried out with 20 μg amounts of membrane protein per 200 μl batch in 50 mM Hepes, pH 7.4, 10 mM MgCl2 and 1 mM EDTA. The binding to the ORL1 receptor was determined using 1 mg amounts of WGA-SPA beads (Amersham-Pharmacia, Freiburg, Germany), by incubation of the batch for one hour at room temperature and subsequent measurement in a Trilux scintillation counter (Wallac, Finland). The affinity is given in Table 1 as the nanomolar Ki value or in % inhibition at c=1 μM.

The target of the next assay is T2, human μ-opiate receptor (Homo sapiens, UniProt P35372).
T2 construct: purchased NEN, Zaventem, Belgium RB-HOM; host or cells: CHO-K1 cells (membrane preparation)
The experiment in a line: μ-opiate receptor binding assay with [3H] naloxone (WGA-SPA beads). The conditions noted are these: 1 μmol/l test substance, 1 nmol/l [3H] naloxone, CHO-K1 cell membranes expressing human μ-opiate receptor. Put shortly:
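Scintillation proximity readout: [3H]naloxone (1 nmol/l) displacement measured after 90 min, room temperature, on human μ-receptor CHO-K1 membranes in Tris-HCl/azide/BSA buffer; 25 μmol/l naloxone defined non-specific binding. Values are % specific-binding inhibition at 1 μmol/l, or Ki from IC50 (Cheng-Prusoff).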

Data on 21 compounds can be found in patent publication US9206156B2, “Substituted indole derivatives” (GRÜNENTHAL GMBH, priority 2008, dated 2015).

The inhibition is the drop in the measured response relative to a control, in per cent.

T1 sequence (P41146 whole entry): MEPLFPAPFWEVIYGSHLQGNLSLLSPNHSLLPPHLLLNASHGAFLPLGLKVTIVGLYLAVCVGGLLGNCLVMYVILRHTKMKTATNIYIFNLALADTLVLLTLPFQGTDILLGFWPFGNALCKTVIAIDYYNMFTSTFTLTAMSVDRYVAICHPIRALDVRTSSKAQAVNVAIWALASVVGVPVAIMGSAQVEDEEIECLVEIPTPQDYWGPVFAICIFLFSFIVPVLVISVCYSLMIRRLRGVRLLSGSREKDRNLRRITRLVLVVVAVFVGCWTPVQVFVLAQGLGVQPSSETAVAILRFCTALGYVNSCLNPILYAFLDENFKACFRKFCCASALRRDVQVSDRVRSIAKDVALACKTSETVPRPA
T2 sequence (P35372 whole entry): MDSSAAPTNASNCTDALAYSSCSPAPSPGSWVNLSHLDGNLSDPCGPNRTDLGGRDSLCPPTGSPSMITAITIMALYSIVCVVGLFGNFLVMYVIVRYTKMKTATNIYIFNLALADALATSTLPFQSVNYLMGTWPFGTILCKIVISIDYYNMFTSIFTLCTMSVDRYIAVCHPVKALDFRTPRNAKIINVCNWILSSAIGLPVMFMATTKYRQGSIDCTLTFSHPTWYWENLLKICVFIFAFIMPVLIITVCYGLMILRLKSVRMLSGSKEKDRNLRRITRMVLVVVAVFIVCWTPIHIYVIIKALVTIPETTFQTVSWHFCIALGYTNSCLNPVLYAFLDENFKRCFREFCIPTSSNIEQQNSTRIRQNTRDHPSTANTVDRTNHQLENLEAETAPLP

Consider `COc1ccc2[nH]cc(CN(C)CCN3CCC(c4ccccc4)(N(C)C)CC3)c2c1` [Example 192, 1-(2-(((5-methoxy-1H-indol-3-yl)methyl)(methyl)amino)ethyl)-N,N-dimethyl-4-phenylpiperidin-4-amine], for which the “% Inhibition (ORL1) at 1 μM” value at ORL1 receptor is recorded as 76%. Besides, the “% Inhibition (μ) at 1 μM” value on human μ-opiate receptor (1 µM) turned out to be 96%.
As for `Cc1[nH]c2ccccc2c1CNCCC(=O)N1CCC(c2ccccc2)(N(C)C)CC1` [Example 167, 1-(4-(dimethylamino)-4-phenylpiperidin-1-yl)-3-((2-methyl-1H-indol-3-yl)methylamino)propan-1-one], the inhibition at 1 µM turned out to be 65% on ORL1 receptor and 86% at human μ-opiate receptor.
As to `CC(C)c1ccc2c(CN(C)CCN3CCC(c4ccccc4)(N(C)C)CC3)c[nH]c2c1` [Example 73, 1-(2-(((6-Isopropyl-1H-indol-3-yl)methyl)(methyl)amino)ethyl)-N,N-dimethyl-4-phenylpiperidin-4-amine], the “% Inhibition (ORL1) at 1 μM” value at ORL1 receptor was found to be 95%. Further, at human μ-opiate receptor, the “% Inhibition (μ) at 1 μM” value was found to be 95%.
For the compound `CCCCC1(N(C)C)CCN(CCN(C)Cc2c[nH]c3ccc(Br)cc23)CC1` [Example 154, 1-(2-(((5-bromo-1H-indol-3-yl)methyl)(methyl)amino)ethyl)-4-butyl-N,N-dimethylpiperidin-4-amine], the inhibition at 1 µM on ORL1 receptor was 28%; on human μ-opiate receptor, 94%.
`CN(C)C1(c2ccccc2)CCN(C(=O)C2CN(Cc3ccc4cc[nH]c4c3)c3ccccc32)CC1` (stereo not drawn) [Example 170, (1-((1H-indol-6-yl)methyl)indolin-3-yl)(4-(dimethylamino)-4-phenylpiperidin-1-yl)methanone]: the results for the inhibition at 1 µM on ORL1 receptor and at human μ-opiate receptor were 38% and 80%, respectively.
Consider `Cc1[nH]c2ccccc2c1CNC(CC(=O)N1CCC(c2cccs2)(N(C)C)CC1)c1ccccc1` (stereo not drawn) [Example 168, 1-(4-(dimethylamino)-4-(thiophen-2-yl)piperidin-1-yl)-3-((2-methyl-1H-indol-3-yl)methylamino)-3-phenylpropan-1-one], for which the inhibition at 1 µM on ORL1 receptor came out at 73%; on human μ-opiate receptor, 92%.
Turning to `CCCCC1(N(C)C)CCN(CCN(C)Cc2c[nH]c3ccccc23)CC1` [Example 138, 1-(2-(((1H-indol-3-yl)methyl)(methyl)amino)ethyl)-4-butyl-N,N-dimethylpiperidin-4-amine], the inhibition at 1 µM at ORL1 receptor turned out to be 12%; on human μ-opiate receptor, 81%.
Take `CCCCC1(N(C)C)CCN(CCN(C)C(=O)c2cccc3c2ccn3C)CC1` [Example 41, N-(2-(4-Butyl-4-(dimethylamino)piperidin-1-yl)ethyl)-N,1-dimethyl-1H-indole-4-carboxamide]: the results for the inhibition at 1 µM on ORL1 receptor and at human μ-opiate receptor were 17% and 63%, respectively.
In the same order, the values of `CN(C)C1(c2ccccc2)CCN(C(=O)CCNCc2ccc3[nH]ccc3c2)CC1` [Example 142, 3-((1H-indol-5-yl)methylamino)-1-(4-(dimethylamino)-4-phenylpiperidin-1-yl)propan-1-one] are 40% and 78%.
For `CC(CC(=O)NCCC(=O)N1CCC(c2ccccc2)(N(C)C)CC1)c1c[nH]c2ccccc12` (stereo not drawn) [Example 92, N-(3-(4-(dimethylamino)-4-phenylpiperidin-1-yl)-3-oxopropyl)-3-(1H-indol-3-yl)butanamide], the results for the inhibition at 1 µM on ORL1 receptor and on human μ-opiate receptor were 88% and 93%, respectively.
Take `Cc1[nH]c2ccccc2c1CN1CCCC(C(=O)N2CCC(c3ccccc3)(N(C)C)CC2)C1` (stereo not drawn) [Example 156, (4-(dimethylamino)-4-phenylpiperidin-1-yl)(1-((2-methyl-1H-indol-3-yl)methyl)piperidin-3-yl) methanone]: the values for the inhibition at 1 µM at ORL1 receptor and on human μ-opiate receptor were 39% and 57%, respectively.
As to `CN(CCCN1CCC(c2ccccc2)(N(C)C)CC1)C(=O)c1cc2cc(F)ccc2[nH]1` [Example 53, N-(3-(4-(Dimethylamino)-4-phenylpiperidin-1-yl)propyl)-5-fluoro-N-methyl-1H-indole-2-carboxamide], the inhibition at 1 µM is 73% on ORL1 receptor and 90% on human μ-opiate receptor.
Consider `CN(C)C1(c2cccs2)CCN(C(=O)CC(NCc2c[nH]c3ccc(Br)cc23)c2ccccc2)CC1` (stereo not drawn) [Example 163, 3-((5-bromo-1H-indol-3-yl)methylamino)-1-(4-(dimethylamino)-4-(thiophen-2-yl)piperidin-1-yl)-3-phenylpropan-1-one], for which the inhibition at 1 µM on ORL1 receptor was determined as 55%; on human μ-opiate receptor, 87%.
`Cc1c(CN(C)CCN2CCC(c3ccccc3)(N(C)C)CC2)c2ccccc2n1C` [Example 189, 1-(2-(((1,2-dimethyl-1H-indol-3-yl)methyl)(methyl)amino)ethyl)-N,N-dimethyl-4-phenylpiperidin-4-amine]: the inhibition at 1 µM on ORL1 receptor turned out to be 83%; on human μ-opiate receptor it was 100%.
On to `CN(CCCN1CCC(c2cccs2)(N(C)C)CC1)C(=O)c1cc2cc(F)ccc2[nH]1` [Example 15, N-(3-(4-(Dimethylamino)-4-(thiophen-2-yl)piperidin-1-yl)propyl)-5-fluoro-N-methyl-1H-indole-2-carboxamide], for which the inhibition at 1 µM is 58% at ORL1 receptor and 88% at human μ-opiate receptor.
On to `CN(CCN1CCC(c2ccccc2)(N(C)C)CC1)C(=O)CCc1cn(C)c2ccccc12` [Example 14, N-(2-(4-(Dimethylamino)-4-phenylpiperidin-1-yl)ethyl)-N-methyl-3-(1-methyl-1H-indol-3-yl)propanamide], for which the inhibition at 1 µM came to 48% on ORL1 receptor and 73% at human μ-opiate receptor.
`CN(CCN1CCC(c2ccccc2)(N(C)C)CC1)Cc1c[nH]c2ccc(Cl)cc12` [Example 183, 1-(2-(((5-chloro-1H-indol-3-yl)methyl)(methy)amino)ethyl)-N,N-dimethyl-4-phenylpiperidin-4-amine]: the “% Inhibition (ORL1) at 1 μM” value at ORL1 receptor is reported as 95%. Besides, the “% Inhibition (μ) at 1 μM” value at human μ-opiate receptor (1 µM) is reported as 100%.
Turning to `CC(C)C(CC(=O)N1CCCC(C(=O)N2CCC(c3ccccc3)(N(C)C)CC2)C1)c1c[nH]c2ccccc12` (stereo not drawn) [Example 106, 1-(3-(4-(dimethylamino)-4-phenylpiperidine-1-carbonyl)piperidin-1-yl)-3-(1H-indol-3-yl)-4-methylpentan-1-one], the inhibition at 1 µM at ORL1 receptor was 63%; on human μ-opiate receptor, 92%.
For the compound `CN(CCN1CCC(c2ccccc2)(N(C)C)CC1)Cc1c(-c2ccccc2)[nH]c2ccccc12` [Example 71, N,N-Dimethyl-1-(2-(methyl((2-phenyl-1H-indol-3-yl)methyl)amino)ethyl)-4-phenylpipendin-4-amine], the values for the inhibition at 1 µM on ORL1 receptor and on human μ-opiate receptor were 83% and 96%, respectively.
Take `CC(C)C(C(=O)N1CCC(c2ccccc2)(N(C)C)CC1)N(C)C(=O)Cc1c[nH]c2ccc(Br)cc12` (stereo not drawn) [Example 83, 2-(5-bromo-1H-indol-3-yl)-N-(1-(4-(dimethylamino)-4-phenylpiperidin-1-yl)-3-methyl-1-oxobutan-2-yl)-N-methylacetamide]: the inhibition at 1 µM amounted to 95% on ORL1 receptor and 84% on human μ-opiate receptor.
On to `CN(C)C1(c2cccs2)CCN(CCNC(=O)C2CCCc3c2[nH]c2ccc(Cl)cc32)CC1` (stereo not drawn) [Example 7, 6-Chloro-N-(2-(4-(dimethylamino)-4-(thiophen-2-yl)piperidin-1-yl)ethyl)-2,3,4,9-tetrahydro-1H-carbazole-1-carboxamide], for which the results for the inhibition at 1 µM at ORL1 receptor and at human μ-opiate receptor were 62% and 95%, respectively.
